Patent publication US20190343860A1 (Saint Louis University, priority 2016, published 2019)
Like-named read-outs stand apart in the source and are kept apart here.

Columns and labels:
mA1AR = molecular target: T1, mA1AR (Mus musculus, UniProt Q60612); assay: Radioligand binding, membranes of HEK293 cells stably expressing mA1AR; conditions: species m; inhibition of binding at 10 μM
T1 construct: expressed in transfected cells
T1 sequence (Q60612 1-326): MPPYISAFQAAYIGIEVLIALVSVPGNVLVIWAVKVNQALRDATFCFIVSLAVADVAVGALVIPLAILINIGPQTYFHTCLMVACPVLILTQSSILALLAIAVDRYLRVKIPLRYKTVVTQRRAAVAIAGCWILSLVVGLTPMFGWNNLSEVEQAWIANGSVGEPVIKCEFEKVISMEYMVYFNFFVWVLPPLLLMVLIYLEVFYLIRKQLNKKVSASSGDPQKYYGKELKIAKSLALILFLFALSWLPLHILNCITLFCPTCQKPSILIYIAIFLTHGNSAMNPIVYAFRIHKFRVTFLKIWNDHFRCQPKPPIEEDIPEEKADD

mA2AAR = molecular target: T2, mA2AAR (Mus musculus, UniProt Q60613); assay: Radioligand binding, membranes of HEK293 cells stably expressing mA2AAR; conditions: species m; inhibition of binding at 10 μM
T2 construct: expressed in transfected cells
T2 sequence (Q60613 whole entry): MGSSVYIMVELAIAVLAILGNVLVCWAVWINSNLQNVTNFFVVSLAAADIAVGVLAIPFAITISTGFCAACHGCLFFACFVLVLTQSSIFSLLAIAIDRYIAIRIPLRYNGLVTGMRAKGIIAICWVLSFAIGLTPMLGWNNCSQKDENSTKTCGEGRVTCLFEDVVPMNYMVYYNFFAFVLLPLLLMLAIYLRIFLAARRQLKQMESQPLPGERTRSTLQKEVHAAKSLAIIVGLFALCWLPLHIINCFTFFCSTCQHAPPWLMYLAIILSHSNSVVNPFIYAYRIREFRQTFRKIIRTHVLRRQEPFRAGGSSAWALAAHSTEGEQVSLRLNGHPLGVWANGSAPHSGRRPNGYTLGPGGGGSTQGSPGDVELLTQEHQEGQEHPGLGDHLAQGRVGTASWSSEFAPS

hA3AR = molecular target: T3, hA3AR (Homo sapiens, UniProt P0DMS8); assay: cAMP assay, inhibition of forskolin-stimulated cAMP in hA3AR-transfected CHO cells; format: cell-based; conditions: species h; percentage of maximal effect of 5′-N-ethylcarboxamidoadenosine 43, each at 10 μM
T3 construct: expressed in transfected cells
T3 sequence (P0DMS8 1-318): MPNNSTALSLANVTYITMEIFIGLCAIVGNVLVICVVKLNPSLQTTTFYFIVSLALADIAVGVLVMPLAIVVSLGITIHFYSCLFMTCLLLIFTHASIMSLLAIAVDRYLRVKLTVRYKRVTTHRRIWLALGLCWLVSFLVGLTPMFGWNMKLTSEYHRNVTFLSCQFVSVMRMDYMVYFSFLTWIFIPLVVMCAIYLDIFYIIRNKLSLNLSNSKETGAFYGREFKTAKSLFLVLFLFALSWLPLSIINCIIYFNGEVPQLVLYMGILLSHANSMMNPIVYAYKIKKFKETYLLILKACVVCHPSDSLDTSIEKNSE

hA1AR [1] = molecular target: T4, hA1AR (Homo sapiens, UniProt P30542); conditions: species h; inhibition of binding at 10 μM; tested in ref 26; cited from earlier work
T4 construct: expressed in transfected cells
T4 sequence (P30542 1-326): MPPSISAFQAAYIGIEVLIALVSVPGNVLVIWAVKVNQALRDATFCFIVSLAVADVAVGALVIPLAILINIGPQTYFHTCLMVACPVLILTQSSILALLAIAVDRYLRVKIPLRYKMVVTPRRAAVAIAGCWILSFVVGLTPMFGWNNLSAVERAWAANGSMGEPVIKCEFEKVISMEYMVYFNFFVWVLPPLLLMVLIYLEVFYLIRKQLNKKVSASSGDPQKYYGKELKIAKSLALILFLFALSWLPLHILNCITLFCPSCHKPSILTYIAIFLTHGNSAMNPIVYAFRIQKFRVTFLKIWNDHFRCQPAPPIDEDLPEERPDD

hA2AAR [2] = molecular target: T5, hA2AAR (Homo sapiens, UniProt P29274); conditions: species h; inhibition of binding at 10 μM; tested in ref 26; cited from earlier work
T5 construct: expressed in transfected cells
T5 sequence (P29274 whole entry): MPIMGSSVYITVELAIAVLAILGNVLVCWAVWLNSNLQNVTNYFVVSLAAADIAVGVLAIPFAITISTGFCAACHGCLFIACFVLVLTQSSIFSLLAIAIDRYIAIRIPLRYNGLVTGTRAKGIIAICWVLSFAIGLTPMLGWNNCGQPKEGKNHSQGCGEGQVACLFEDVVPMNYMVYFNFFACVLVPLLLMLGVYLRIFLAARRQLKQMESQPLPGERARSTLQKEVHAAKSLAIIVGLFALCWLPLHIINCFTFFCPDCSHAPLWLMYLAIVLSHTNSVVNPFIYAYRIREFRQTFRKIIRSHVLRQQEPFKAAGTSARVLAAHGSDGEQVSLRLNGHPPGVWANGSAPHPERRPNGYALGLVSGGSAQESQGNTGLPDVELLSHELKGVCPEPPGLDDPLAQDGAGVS

hA2AAR [3] = molecular target: T5, hA2AAR; assay: Radioligand binding, membranes of HEK293 cells stably expressing hA2AAR; conditions: species h; inhibition of binding at 10 μM
mA3AR [4] = molecular target: T6, mA3AR (Mus musculus, UniProt Q61618); assay: cAMP assay, inhibition of forskolin-stimulated cAMP in mAR-transfected HEK cells; format: cell-based; conditions: species m; percentage of maximal effect of 1a, from concentration-effect curves
T6 construct: expressed in transfected cells
T6 sequence (Q61618 1-319): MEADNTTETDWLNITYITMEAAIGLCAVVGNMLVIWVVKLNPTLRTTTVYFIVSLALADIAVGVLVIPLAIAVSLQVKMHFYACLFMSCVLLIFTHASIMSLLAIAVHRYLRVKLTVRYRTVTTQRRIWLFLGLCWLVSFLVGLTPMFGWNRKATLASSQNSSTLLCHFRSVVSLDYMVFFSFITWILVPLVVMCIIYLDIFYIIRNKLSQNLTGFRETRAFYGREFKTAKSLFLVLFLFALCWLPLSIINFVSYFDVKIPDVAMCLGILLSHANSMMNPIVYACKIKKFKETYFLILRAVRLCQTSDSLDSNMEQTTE

hA1AR [5] = molecular target: T4, hA1AR; assay: Radioligand binding, membranes of CHO cells stably expressing hA1AR; conditions: species h; inhibition of binding at 10 μM
mA3AR [6] = molecular target: T6, mA3AR; assay: Radioligand binding, membranes of HEK293 cells stably expressing mA3AR; conditions: species m; inhibition of binding at 10 μM
[7] = test system: isolated mouse liver mitochondria; assay: Mitochondrial membrane potential (ΔΨm), TMRM flow cytometry of isolated mitochondria; format: biochemical; conditions: n=1
Description: FIG. 12. MRS5980 reduces ADP-dependent dissipation of mitochondrial membrane potential (ΔΨm). ADP (1 mM) in the presence of Complex I and II substrates reduced the ΔΨm in isolated mouse liver mitochondrial (decreased TMRM signal). The degree of dissipation ΔΨm was lessened with MRS5980 (10 μM) treatment prior to adding ADP n=1, 10,000 mitochondria counted/sample.
FIG. 13. MRS5980 reduces calcium-dependent dissipation of mitochondrial ΔΨm. The addition of Ca^2+ (0.5-15 μM) to isolated mouse liver mitochondria reduced the mitochondria ΔΨm in (decreased TMRM signal). The mitochondrial ΔΨιη was sustained with MRS5980 (10 μM) treatment. n=1, 10,000 mitochondria counted/sample.
Mitochondrial membrane potential (ΔΨm). Mitochondria from mouse & rat liver were isolated for flow cytometry as previously described. Mitochondria (57 μg) were loaded with Mitotracker DeepRed FM (50 nM) & TMRM (100 nM). Mitochondria were then treated for 5 min with MRS5980 (10 μM) or vehicle then stimulated with ADP (1 mM) or Ca^2+ (0-15 μM) for 1 min. Mitochondria (10,000 counts) were detected using Mitotracker Deep Red FM (Abs/EM 644/665 nm) signal & the ΔΨm state determined by the dynamic median fluorescence signal of TMRM using a FACSCanto II (BD Biosciences).

[8] = test system: PNSA mitochondria (saphenous nerve explants); assay: ATP production in saphenous nerve explants after direct drug application; design: species or system rat; conditions: 1 μM
Description: FIG. 14. […] Mean±SEM, n=6/group *P=0.019 vs, t-test
ATP assays. Saphenous nerves were harvested from rats 25 days after the initiation of chemotherapy treatments, then minced & teased apart as previously described. Saphenous nerve explants were transferred to MiR05 respiratory buffer & baseline ATP samples were taken after 5 min or after 15 min treatment with MRS5980 or vehicle. ADP (1 mM), glutamate (5 mM), succinate (5 mM), […] (5 mM) were added for 5 min & samples were taken for ATP. ATP levels were measured by a flash luciferin-luciferase assay (Promega Enliten ATP Assay; Promega, Madison, Wis.) & normalized to citrate synthase activity (Sigma, St Louis, Mo.) in explants homogenates.

[9] = Oxaliplatin-induced mechano-hypersensitivity (paw withdrawal threshold, von Frey); format: in vivo, rat; conditions: oxaliplatin 5 days, 10 mg/kg cumulative dose
Description: Mean±SEM, n=6/group, ANOVA with Bonferroni comparisons. *P<0.05 vs. day 0; #P<0.05 vs. vehicle &†P<0.05 vs. Oxaliplatin.

[10] = test system: intraepidermal nerve fibers (IENFs); assay: Incidence of intraepidermal nerve fibers (IENFs) in chemotherapy-treated rats; conditions: chemotherapeutic alone; p<0.05 vs. Naive

Structure (SMILES)	% inhibition A1 (mA1AR)	% inhibition A2A (mA2AAR)	% efficacy (hA3AR)	% inhibition A1 (hA1AR [1])	% inhibition A2A (hA2AAR [2])	also measured
CNC(=O)[C@@]12C[C@@H]1[C@@H](n1cnc3c(NCc4cccc(Cl)c4)nc(C#Cc4ccccc4)nc31)[C@H](O)[C@@H]2O [Cmpd 5]	(50% ± 5%	(2% ± 1%)	101 ± 5.9%	(20% ± 3%)	(27% ± 3%)	–
CNC(=O)C12CC1C(n1cnc3c(NCc4cccc(Cl)c4)nc(C#Cc4ccc(S(=O)(=O)O)cc4)nc31)C(O)C2O (centres unmarked) [Cmpd 6]	–	(14% ± 4%)	98.6 ± 5.7%	–	–	% inhibition A2A (hA2AAR [3]): (23% ± 3%); % efficacy (mA3AR [4]): 95.7 ± 19.1%
CNC(=O)C12CC1C(n1cnc3c(NCc4cccc(Cl)c4)nc(C#Cc4cccc(S(=O)(=O)O)c4)nc31)C(O)C2O (centres unmarked) [Cmpd 7]	(15% ± 2%)	(1% ± 1%)	98.2 ± 6.7%	–	–	% inhibition A1 (hA1AR [5]): (16% ± 3%); % inhibition A2A (hA2AAR [3]): (7% ± 6%); % efficacy (mA3AR [4]): 89.3 ± 7.1%
CNc1nc(C#Cc2ccccc2)nc2c1ncn2[C@H]1[C@H](O)[C@H](O)[C@@H]2C[C@@H]21 [Cmpd 8]	–	(8% ± 3%)	12.6 ± 4.0%	(18% ± 1%)	(18% ± 3%)	–
CCNc1nc(C#Cc2ccccc2)nc2c1ncn2[C@H]1[C@H](O)[C@H](O)[C@@H]2C[C@@H]21 [Cmpd 9]	(49% ± 6%)	(49% ± 2%)	0.8 ± 5.2%	(36% ± 4%)	(42% ± 4%)	–
CCNc1nc(C#Cc2ccccc2Cl)nc2c1ncn2[C@H]1[C@H](O)[C@H](O)[C@@H]2C[C@@H]21 [Cmpd 10]	(47% ± 8%)	(11% ± 1%)	7.0 ± 5.2%	(25% ± 11%)	(17% ± 6%)	% inhibition A3 (mA3AR [6]): (50% ± 9%)
O[C@@H]1[C@H](O)[C@@H]2C[C@@H]2[C@H]1n1cnc2c(NCc3cccc(Cl)c3)nc(C#Cc3ccccc3)nc21 [Cmpd 11]	–	–	13.8 ± 5.1%	(37% ± 4%)	–	–
O[C@@H]1[C@H](O)[C@@H]2C[C@@H]2[C@H]1n1cnc2c(NCc3cccc(Cl)c3)nc(C#Cc3cccc(Cl)c3)nc21 [Cmpd 12]	–	–	4.5 ± 4.9%	–	–	–
O[C@@H]1[C@H](O)[C@@H]2C[C@@H]2[C@H]1n1cnc2c(NCc3cccc(Cl)c3)nc(C#Cc3ccc(-c4ccccc4)cc3)nc21 [Cmpd 13]	–	(0%)	3.5 ± 3.2%	(48% ± 4%)	(12% ± 7%)	–
O[C@@H]1[C@H](O)[C@@H]2C[C@@H]2[C@H]1n1cnc2c(NCCc3ccccc3)nc(C#Cc3ccccc3)nc21 [Cmpd 14]	(39% ± 6%)	(13% ± 2%)	4.1 ± 1.2%	(30% ± 8%)	(22% ± 5%)	–
O[C@@H]1[C@H](O)[C@@H]2C[C@@H]2[C@H]1n1cnc2c(NCC(c3ccccc3)c3ccccc3)nc(C#Cc3ccccc3Cl)nc21 [Cmpd 15]	(23% ± 1%)	(16% ± %)	2.6 ± 1.3%	(26% ± 4%)	(22% ± 2%)	% inhibition A3 (mA3AR [6]): (54 ± 3%)
O=S(=O)(O)c1ccc(CCNc2nc(C#Cc3ccccc3)nc3c2ncn3[C@H]2[C@H](O)[C@H](O)[C@@H]3C[C@@H]32)cc1 [Cmpd 16]	(18% ± 2%)	(1% ± 2%)	7.2%	–	–	% inhibition A1 (hA1AR [5]): (10% ± 5%); % inhibition A2A (hA2AAR [3]): (15% ± 3%)
CNC(=O)C12CC1C(n1cnc3c(NCCc4ccccc4)nc(C#Cc4ccccc4)nc31)C(O)C2O (centres unmarked) [Cmpd 17]	(25% ± 5%)	(1% ± 1%)	105.3 ± 9.8%	–	–	% inhibition A1 (hA1AR [5]): (11% ± 3%); % inhibition A2A (hA2AAR [3]): (32% ± 4%); % efficacy (mA3AR [4]): 114.6 ± 14.6%
CNC(=O)[C@@]12C[C@@H]1[C@@H](n1cnc3c(NC)nc(C#Cc4ccc(Cl)s4)nc31)[C@H](O)[C@@H]2O [MRS5980]	–	–	–	–	–	ADP-dependent dissipation of mitochondrial membrane potential (ΔΨm) ([7]; 10 μM prior to ADP (1 mM)): lessened; Calcium-dependent dissipation of mitochondrial ΔΨm ([7]; 10 μM, Ca2+ 0.5-15 μM): sustained; ATP production following stimulation of Complex I and II ([8]; explants from oxaliplatin-treated rats, day 25): reverses oxaliplatin-induced deficiencies in ATP production; ATP production following stimulation of Complex I and II ([8]; explants from vehicle-treated rats): modestly enhanced ATP production
O=C1[O][Pt]2([NH][C@@H]3CCCC[C@H]3[NH]2)[O]C1=O [oxaliplatin, reference compound]	–	–	–	–	–	Mechano-hypersensitivity (Paw Withdrawal Threshold) [9]: produces mechano-hypersensitivity; Incidence of IENFs vs. Naive rats [10]: statistically significantly fewer IENFs
